Experimental data taken from PMC6013247, “Preclinical characterization of INCB053914, a novel pan-PIM kinase inhibitor, alone and in combination with anticancer agents, in models of hematologic malignancies” (PLoS ONE, 2018).

Assays:
[1] = test system: PIM kinase substrates (p70S6K/S6 and 4E-BP1) in MOLM-16, Pfeiffer and KMS-12-PE/BM cell lines; test: Western blot of PIM kinase substrate phosphorylation in cell lines; type: cell-based; details: MOLM-16 (AML), Pfeiffer (DLBCL), KMS-12-PE/BM (MM); 0 to 1 μM, 2 hours
Experimental: Inhibition of PIM kinase substrate phosphorylation (BAD, S6, p70S6K, and 4E-BP1) and the upregulation of PIM2 (chosen because of its reduced susceptibility to in vitro kinase inhibition) by INCB053914 was determined by incubating 10^6 MOLM-16 (AML), Pfeiffer (DLBCL), KMS-12-PE (MM), and KMS-12-BM (MM) cells with INCB053914 at concentrations ranging from 0 (phosphate-buffered saline [PBS]) to 1 μM for 2 hours in Roswell Park Memorial Institute (RPMI) medium. Cells were centrifuged at 1,000 rpm for 10 minutes and lysed with 1× lysis buffer (Cell Signaling Technology, Danvers, Massachusetts) supplemented with 1 mM phenylmethane sulfonyl fluoride (Sigma-Aldrich, St Louis, Missouri) and proteinase inhibitor cocktail (CalBiochem, San Diego, California). Cell lysates were stored at –80°C before determining phosphoprotein and PIM2 levels by Western blotting using anti-pBAD (S112), anti-p4E-BP1 (S65), pp70S6K (T389), pS6 (S285/S286), and anti-PIM2 antibodies (Cell Signaling Technology).

ERBB4 = ERBB4 (Homo sapiens, UniProt Q15303); test: Kinase selectivity panel; type: biochemical; details: [ATP] = 1 mM
Chain of ERBB4 (Q15303 26-1308): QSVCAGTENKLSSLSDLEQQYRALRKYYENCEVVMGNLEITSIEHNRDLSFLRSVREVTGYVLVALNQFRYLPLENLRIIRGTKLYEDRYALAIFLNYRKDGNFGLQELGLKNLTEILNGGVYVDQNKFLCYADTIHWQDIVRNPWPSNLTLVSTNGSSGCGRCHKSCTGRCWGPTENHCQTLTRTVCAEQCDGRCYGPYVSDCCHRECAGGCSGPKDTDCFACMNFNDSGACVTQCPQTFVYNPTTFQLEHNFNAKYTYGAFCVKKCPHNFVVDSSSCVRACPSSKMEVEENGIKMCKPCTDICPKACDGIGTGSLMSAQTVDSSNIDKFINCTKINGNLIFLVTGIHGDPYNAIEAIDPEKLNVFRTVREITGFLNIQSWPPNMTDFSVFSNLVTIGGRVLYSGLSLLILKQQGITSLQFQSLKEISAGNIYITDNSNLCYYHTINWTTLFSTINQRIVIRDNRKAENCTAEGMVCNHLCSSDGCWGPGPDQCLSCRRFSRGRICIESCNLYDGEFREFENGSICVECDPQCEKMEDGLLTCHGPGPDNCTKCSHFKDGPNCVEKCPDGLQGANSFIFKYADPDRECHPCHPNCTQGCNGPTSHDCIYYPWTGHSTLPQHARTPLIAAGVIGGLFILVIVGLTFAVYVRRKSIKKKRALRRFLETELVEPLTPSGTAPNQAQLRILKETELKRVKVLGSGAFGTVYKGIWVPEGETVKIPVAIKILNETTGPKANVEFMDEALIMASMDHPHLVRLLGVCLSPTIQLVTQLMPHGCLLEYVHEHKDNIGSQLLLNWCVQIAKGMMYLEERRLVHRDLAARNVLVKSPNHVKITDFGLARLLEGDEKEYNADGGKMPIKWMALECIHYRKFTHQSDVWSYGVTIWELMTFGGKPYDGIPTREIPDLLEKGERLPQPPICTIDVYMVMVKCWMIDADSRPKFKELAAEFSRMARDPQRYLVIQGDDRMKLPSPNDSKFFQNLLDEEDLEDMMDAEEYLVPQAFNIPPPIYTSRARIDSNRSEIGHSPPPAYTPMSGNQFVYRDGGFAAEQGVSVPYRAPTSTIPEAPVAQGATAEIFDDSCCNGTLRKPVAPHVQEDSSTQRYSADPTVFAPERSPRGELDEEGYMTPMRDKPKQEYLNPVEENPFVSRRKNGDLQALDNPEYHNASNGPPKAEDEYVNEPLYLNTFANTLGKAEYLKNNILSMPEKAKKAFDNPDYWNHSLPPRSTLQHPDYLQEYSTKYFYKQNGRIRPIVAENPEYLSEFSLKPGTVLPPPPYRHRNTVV

PRKAA1 = PRKAA1 (Homo sapiens, UniProt Q13131); test: Kinase selectivity panel; type: biochemical; details: [ATP] = 1 mM
Chain of PRKAA1 (Q13131 whole entry): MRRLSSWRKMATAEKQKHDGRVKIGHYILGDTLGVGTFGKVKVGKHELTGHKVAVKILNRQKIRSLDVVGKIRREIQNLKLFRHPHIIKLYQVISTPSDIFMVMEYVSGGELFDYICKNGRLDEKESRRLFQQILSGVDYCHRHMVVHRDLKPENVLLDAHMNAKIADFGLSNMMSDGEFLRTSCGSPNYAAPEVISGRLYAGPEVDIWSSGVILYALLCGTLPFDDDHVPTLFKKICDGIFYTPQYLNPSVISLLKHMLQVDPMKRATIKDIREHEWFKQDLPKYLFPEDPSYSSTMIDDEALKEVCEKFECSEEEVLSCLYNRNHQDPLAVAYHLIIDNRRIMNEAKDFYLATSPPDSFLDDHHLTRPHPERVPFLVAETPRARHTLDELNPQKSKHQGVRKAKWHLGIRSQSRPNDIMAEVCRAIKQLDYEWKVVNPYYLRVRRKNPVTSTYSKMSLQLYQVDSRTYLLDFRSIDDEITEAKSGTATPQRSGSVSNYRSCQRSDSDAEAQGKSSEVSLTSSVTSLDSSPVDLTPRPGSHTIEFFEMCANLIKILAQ
Chain of PRKAA1 (Q9Y478 whole entry partner): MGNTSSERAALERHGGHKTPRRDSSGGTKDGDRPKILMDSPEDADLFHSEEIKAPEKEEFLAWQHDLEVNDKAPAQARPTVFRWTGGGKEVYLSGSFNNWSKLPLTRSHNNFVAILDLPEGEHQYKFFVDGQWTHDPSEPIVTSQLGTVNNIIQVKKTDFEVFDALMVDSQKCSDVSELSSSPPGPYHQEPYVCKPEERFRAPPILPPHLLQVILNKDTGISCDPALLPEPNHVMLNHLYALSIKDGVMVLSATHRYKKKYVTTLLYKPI
Chain of PRKAA1 (P54619 whole entry partner): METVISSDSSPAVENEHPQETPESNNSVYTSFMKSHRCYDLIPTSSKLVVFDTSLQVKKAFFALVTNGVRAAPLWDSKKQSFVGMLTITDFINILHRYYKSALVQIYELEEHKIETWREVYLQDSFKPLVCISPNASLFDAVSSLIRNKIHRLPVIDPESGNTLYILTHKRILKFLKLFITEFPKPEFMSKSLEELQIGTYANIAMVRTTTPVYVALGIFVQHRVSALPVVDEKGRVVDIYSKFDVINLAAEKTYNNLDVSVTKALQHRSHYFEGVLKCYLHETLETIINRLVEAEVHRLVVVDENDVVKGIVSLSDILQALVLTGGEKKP

ZAP70 = ZAP70 (Homo sapiens, UniProt P43403); test: Kinase selectivity panel; type: biochemical; details: [ATP] = 1 mM
Chain of ZAP70 (P43403 whole entry, species assumed): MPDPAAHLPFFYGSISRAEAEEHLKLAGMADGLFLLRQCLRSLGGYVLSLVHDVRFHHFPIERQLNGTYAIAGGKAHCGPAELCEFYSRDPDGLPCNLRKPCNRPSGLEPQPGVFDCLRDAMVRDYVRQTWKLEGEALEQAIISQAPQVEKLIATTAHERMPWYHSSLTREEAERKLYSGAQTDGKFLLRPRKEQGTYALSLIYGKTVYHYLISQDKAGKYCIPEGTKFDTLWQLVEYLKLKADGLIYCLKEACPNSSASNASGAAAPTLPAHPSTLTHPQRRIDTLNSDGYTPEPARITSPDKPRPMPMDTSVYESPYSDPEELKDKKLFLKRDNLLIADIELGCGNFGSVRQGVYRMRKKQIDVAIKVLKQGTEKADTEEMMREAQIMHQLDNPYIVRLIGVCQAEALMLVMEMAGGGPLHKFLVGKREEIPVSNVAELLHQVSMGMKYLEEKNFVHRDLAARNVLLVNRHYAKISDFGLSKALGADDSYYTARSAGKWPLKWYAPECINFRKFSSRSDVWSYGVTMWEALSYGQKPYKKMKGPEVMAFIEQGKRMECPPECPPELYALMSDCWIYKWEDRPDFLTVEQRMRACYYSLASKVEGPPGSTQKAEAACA

[2] = test system: primary bone marrow blasts from patients with AML; test: Ex vivo treatment of primary bone marrow blasts from patients with AML (Western blot); type: cell-based, human
Experimental: The effects of INCB053914 on pBAD, pp70S6K, and p4E-BP1 levels and on the expression of PIM isozymes also were assessed ex vivo in primary bone marrow blasts (Stem Cell and Xenograft Core, University of Pennsylvania, Philadelphia, Pennsylvania) or in peripheral blood mononuclear cells (PBMCs) derived from whole blood samples obtained with informed written consent from adult patients with AML enrolled in an ongoing phase 1/2 dose-escalation trial, which was conducted in accordance with the study protocol approved by the respective institutional review boards or independent ethics committees. Only samples initially containing >90% viable cells were used (assessed by Trypan Blue staining). Immediately after thawing, the blasts were cultured in RPMI + 10% FBS with INCB053914 for 2 hours at 37°C, before lysis. For determinations of PIM2 expression in PBMCs, whole blood samples were treated overnight with increasing concentrations of INCB053914; total PBMCs were isolated by Ficoll-Paque density gradient centrifugation before lysis. The levels of PIM isozymes and phosphoproteins in cell lysates were detected by Western blotting using the same primary antibodies as above.

KDR = KDR (Homo sapiens, UniProt P35968); test: Kinase selectivity panel; type: biochemical; details: [ATP] = 1 mM
CAMK2D = CAMK2D (Homo sapiens, UniProt Q13557); test: Kinase selectivity panel; type: biochemical; details: [ATP] = 1 mM
OCI-LY-10 = test: Cell proliferation assay ([3H]-thymidine); type: cell-based; details: OCI-LY-10 (DLBCL)
Experimental: (§1) The antiproliferative effects of INCB053914 on hematologic tumor cells were investigated using assays described in the Supporting Information (S2 File).
(§2) Cell proliferation assays. […] After 3 to 4 days, [^3H]-thymidine (1 μCi/well) (PerkinElmer) in PBS (10 μl) was added to the cell culture for an additional 12 hours. The incorporated radioactivity was separated by filtration with water through GF/B filters (Packard Bioscience, Meriden, Connecticut) and measured by liquid scintillation counting with a TopCount (Packard Bioscience).

EOL = test: Cell proliferation assay ([3H]-thymidine); type: cell-based; details: EOL (AML)
Experimental: as §1, §2

HBL-1 = test: Cell proliferation assay ([3H]-thymidine); type: cell-based; details: HBL1; HBL-1 (DLBCL); read-out: Mean (± SD) GI50
Experimental: as §1, §2

KMS-11 = test: Cell proliferation assay ([3H]-thymidine); type: cell-based; details: KMS-11 (MM)
Experimental: as §1, §2

Reh = test: Cell proliferation assay ([3H]-thymidine); type: cell-based; details: Reh (T-ALL)
Experimental: as §1, §2

KMS-34 = test: Cell proliferation assay ([3H]-thymidine); type: cell-based; details: KMS-34 (MM)
Experimental: as §1, §2

KMS-28-BM = test: Cell proliferation assay ([3H]-thymidine); type: cell-based; details: KMS-28-BM (MM)
Experimental: as §1, §2

KMS-12-PE = test: Cell proliferation assay ([3H]-thymidine); type: cell-based; details: KMS-12-PE (MM)
Experimental: as §1, §2

NOMO1 = test: Cell proliferation assay ([3H]-thymidine); type: cell-based; details: NOMO1 (AML)
Experimental: as §1, §2

OCI-LY-19 = test: Cell proliferation assay ([3H]-thymidine); type: cell-based; details: OCI-LY-19 (DLBCL)
Experimental: as §1, §2

Toledo = test: Cell proliferation assay ([3H]-thymidine); type: cell-based; details: Toledo (DLBCL)
Experimental: as §1, §2

Mino = test: Cell proliferation assay ([3H]-thymidine); type: cell-based; details: Homo sapiens; Mino (MCL); read-out: Mean (± SD) GI50
Experimental: as §1, §2

GDM-1 = test: Cell proliferation assay ([3H]-thymidine); type: cell-based; details: Homo sapiens; GDM-1 (AML); read-out: Mean (± SD) GI50
Experimental: as §1, §2

RET = RET (Homo sapiens, UniProt P07949); test: Kinase selectivity panel; type: biochemical; details: [ATP] = 1 mM
Chain of RET (P07949 29-1114): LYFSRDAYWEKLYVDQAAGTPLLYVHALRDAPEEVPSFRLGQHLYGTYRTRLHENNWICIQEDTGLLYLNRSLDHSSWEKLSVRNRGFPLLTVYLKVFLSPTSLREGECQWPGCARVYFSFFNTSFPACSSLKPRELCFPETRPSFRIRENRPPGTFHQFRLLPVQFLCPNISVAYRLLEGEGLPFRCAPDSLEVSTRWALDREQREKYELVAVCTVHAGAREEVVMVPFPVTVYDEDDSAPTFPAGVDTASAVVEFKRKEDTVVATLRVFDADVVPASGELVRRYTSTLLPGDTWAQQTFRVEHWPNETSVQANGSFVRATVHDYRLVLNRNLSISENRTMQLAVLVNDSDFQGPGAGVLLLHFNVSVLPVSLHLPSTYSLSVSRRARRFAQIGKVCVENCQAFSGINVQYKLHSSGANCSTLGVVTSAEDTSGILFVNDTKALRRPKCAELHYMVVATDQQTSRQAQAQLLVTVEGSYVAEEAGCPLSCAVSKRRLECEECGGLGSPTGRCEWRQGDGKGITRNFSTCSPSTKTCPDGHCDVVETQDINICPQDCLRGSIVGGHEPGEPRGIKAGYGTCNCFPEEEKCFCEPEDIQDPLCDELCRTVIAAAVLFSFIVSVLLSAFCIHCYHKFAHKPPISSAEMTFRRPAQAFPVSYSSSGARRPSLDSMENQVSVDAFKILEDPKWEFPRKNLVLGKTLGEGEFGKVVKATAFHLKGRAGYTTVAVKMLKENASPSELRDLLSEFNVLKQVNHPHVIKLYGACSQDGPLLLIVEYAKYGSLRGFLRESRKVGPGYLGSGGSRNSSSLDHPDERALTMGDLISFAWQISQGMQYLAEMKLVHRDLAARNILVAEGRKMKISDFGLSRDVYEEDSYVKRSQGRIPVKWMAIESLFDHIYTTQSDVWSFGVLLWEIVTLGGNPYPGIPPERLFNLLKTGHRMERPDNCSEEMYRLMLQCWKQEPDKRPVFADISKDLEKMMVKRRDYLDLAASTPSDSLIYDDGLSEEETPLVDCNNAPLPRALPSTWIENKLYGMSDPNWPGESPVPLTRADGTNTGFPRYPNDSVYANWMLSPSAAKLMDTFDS

LCK = LCK (Homo sapiens, UniProt P06239); test: Kinase selectivity panel; type: biochemical; details: [ATP] = 1 mM
Chain of LCK (P06239 whole entry): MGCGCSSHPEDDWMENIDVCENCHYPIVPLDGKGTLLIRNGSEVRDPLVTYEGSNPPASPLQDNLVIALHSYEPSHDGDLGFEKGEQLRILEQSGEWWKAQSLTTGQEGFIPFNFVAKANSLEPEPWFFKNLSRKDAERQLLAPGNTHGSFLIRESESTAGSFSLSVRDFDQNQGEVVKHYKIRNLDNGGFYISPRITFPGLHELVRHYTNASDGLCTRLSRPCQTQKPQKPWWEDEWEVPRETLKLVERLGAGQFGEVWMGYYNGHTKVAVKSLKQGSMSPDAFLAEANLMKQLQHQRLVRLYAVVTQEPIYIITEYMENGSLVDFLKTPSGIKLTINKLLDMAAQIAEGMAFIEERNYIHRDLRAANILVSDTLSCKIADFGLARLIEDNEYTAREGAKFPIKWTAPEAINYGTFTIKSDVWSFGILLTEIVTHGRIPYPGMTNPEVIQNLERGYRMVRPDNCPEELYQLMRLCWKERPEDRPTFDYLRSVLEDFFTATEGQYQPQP

[3] = Homo sapiens, read-out: Mean (± SD) GI50

With `C[C@H]1CN(c2c(NC(=O)c3ccc(F)c(-c4c(F)cccc4F)n3)cnc3c2CC[C@H]3O)C[C@@H](N)[C@@H]1O.O=P(O)(O)O` [INCB053914, N-((R)-4-((3R,4R,5S)-3-amino-4-hydroxy-5-methylpiperidin-1-yl)-7-hydroxy-6,7-dihydro-5H-cyclopenta[b]pyridin-3-yl)-6-(2,6-difluorophenyl)-5-fluoropicolinamide phosphate] the “phosphorylation of downstream PIM kinase substrates (p70S6K/S6 and 4E-BP1)” value [1] was “inhibited the phosphorylation of downstream PIM kinase substrates (p70S6K/S6 and 4E-BP1) in a dose-dependent manner”, the IC50 (ERBB4) was > 20 µM and the IC50 (PRKAA1) was > 20 µM. For the same compound, the IC50 (ZAP70) was > 20 µM, the “patients whose blasts showed decreases in BAD phosphorylation” value [2] was “two of four patients” and the PIM2 expression ([2]; 2 hours) was “increased PIM2 expression”. The “phosphorylation of p70S6K and 4E-BP1” value ([2]; 2 hours) was “decreased phosphorylation of p70S6K and 4E-BP1”, the IC50 (KDR) was > 20 µM and the IC50 (CAMK2D) was > 20 µM. For the same compound, the GI50 (OCI-LY-10; Homo sapiens, OCI-Ly10, read-out: Mean (± SD) GI50) was 41.7 ± 29.4 nM, the “Mean (SD) maximum inhibition” value (OCI-LY-10) was 96.3 ± 5.5% and the “Mean (SD) maximum inhibition” value (EOL) was 99.5 ± 0.6%. The GI50 (EOL; read-out: Mean (± SD) GI50) was 18.5 ± 6.1 nM, the GI50 (HBL-1) was > 3000 nM and the GI50 (KMS-11; [3]) was 81.8 ± 8.1 nM. For the same compound, the “Mean (SD) maximum inhibition” value (KMS-11) was 93.0 ± 2.5%, the GI50 (Reh; [3]) was 33.7 ± 24.3 nM and the “Mean (SD) maximum inhibition” value (Reh) was 94.3 ± 5.7%. For the same compound, the “Mean (SD) maximum inhibition” value (KMS-34) was 98.8 ± 0.5%, the GI50 (KMS-34; read-out: Mean (± SD) GI50) was 87.1 ± 28 nM and the “Mean (SD) maximum inhibition” value (KMS-28-BM) was 86.0 ± 3.7%. For the same compound, the GI50 (KMS-28-BM; read-out: Mean (± SD) GI50) was 36.7 ± 9.9 nM, the GI50 (KMS-12-PE; [3]) was 89.7 ± 50.9 nM and the “Mean (SD) maximum inhibition” value (KMS-12-PE) was 97.0 ± 4.7%. The GI50 (NOMO1; Homo sapiens, NOMO-1, read-out: Mean (± SD) GI50) was 35.9 ± 9.3 nM, the “Mean (SD) maximum inhibition” value (NOMO1) was 84.6 ± 4.0% and the GI50 (OCI-LY-19; Homo sapiens, OCI-LY19, read-out: Mean (± SD) GI50) was 110 ± 53.6 nM. For the same compound, the “Mean (SD) maximum inhibition” value (OCI-LY-19) was 69.7 ± 5.1%, the GI50 (Toledo; [3]) was 70.7 ± 25.1 nM and the “Mean (SD) maximum inhibition” value (Toledo) was 97.6 ± 1.5%. The GI50 (Mino) was > 3000 nM, the GI50 (GDM-1) was > 3000 nM and the IC50 (RET) was > 20 µM. The IC50 (LCK) was > 20 µM.
